Assay results taken from PMC8753592, “Long-acting capsid inhibitor protects macaques from repeat SHIV challenges” (Nature, 2021).
pKd: −log10 of the molar value. Several values for one entry are separate records, joined by “and”; a condition that tells them apart may be missing. Identical values can stand only once.

Legend:
SHIV-SF162P3 = test: Repeated escalating-dose rectal SHIV challenge study (plasma viraemia by gag RT-qPCR); assay type: in vivo, rhesus macaques of Indian origin
Procedure: For the challenge study, 24 outbred rhesus macaques of Indian origin were assigned to the three study groups with even sex and weight distributions. All animals were housed at Alpha Genesis (Yemassee, SC), and all procedures were conducted in compliance with all relevant local, state and federal regulations and were approved by the Alpha Genesis IACUC. […] The injection sites were monitored daily by veterinary staff for 3 days. Beginning in week 1, animals in all three groups were challenged by the intrarectal route with 1 ml of RPMI containing the specified dilution of a 3.62 × 10^3 TCID50 SHIV-SF162P3 stock. At each respective time point, the challenges were performed on the same day, using the same virus stock and inoculation method across the three groups. Whole blood was collected and processed into plasma and PBMCs as necessary to assess routine haematology, clinical chemistry, viral load and serology as well as for bioanalysis of drug levels. The animals were considered to be protected if they remained SHIV negative by plasma PCR assay and seronegative by enzyme immunoassay throughout the 15-week challenge phase and the 9-week follow-up.
RNA was extracted from rhesus macaque plasma using a QIAcube high-throughput instrument and an IndiSpin QIAcube HT Pathogen kit (Qiagen). RNA standards using the SIV gag sequence were generated by AmpliCap-Max T7 High-Yield Message Maker kit (Cell Script) and were purified using an RNA Clean and Concentrator kit (Zymo Research). Log dilutions of the RNA were included with each RT–qPCR assay. Reverse transcription of standards and samples was performed using a Superscript III VILO kit (Invitrogen). qPCR was performed using forward primer 5′-[…]-3′, reverse primer 5′-[…]-3′ and fluorescently labelled primer 5′-[…]-3′ on a Quantstudio 6 Flex system (Applied Biosystems). The assay LOD was 200 copies gag per ml.
Protection against acquired infection was analysed using Cox proportional hazard regression models based on the exact partial likelihood for discrete time expressed in weeks, which explicitly accounts for the time-varying viral challenge dose in the model. The hazard ratios with 95% confidence intervals for per-exposure relative reductions in acquisition risk were calculated for the GS-CA1-treated groups, and the results were compared with those for the vehicle-treated control group. Comparisons were considered statistically significant at a two-sided alpha level of 0.05 (P < 0.05). Statistical analyses were performed using GraphPad Prism version 8.1.2, SAS version 9.4 and R Studio software version 4.0.5.

[1] = test system: SHIV envelope (Env) glycoprotein; test: Env (gp140) ELISA seroconversion in challenged animals; assay type: in vivo, rhesus macaques; settings: for First viremia to seroconversion interval / Seroconversion timepoint: individual infected animals
Procedure: Rhesus serum binding antibody titres against gp140 trimers were determined by ELISA. Ninety-six-well Maxisorp ELISA plates (Thermo Fisher Scientific) were coated overnight with 100 μl per well of 1 μg ml^−1 mosaic M gp140 protein in PBS and were then blocked for 2 h with blocker casein in PBS (Thermo Scientific). Macaque sera were added in threefold serial dilutions and were incubated for 1 h at room temperature. The plates were washed three times with PBS containing 0.05% Tween-20 and were then incubated for 1 h with a 1:1,000 dilution of a horseradish peroxidase (HRP)-conjugated goat anti-human secondary antibody (Jackson ImmunoResearch Laboratories). The plates were then washed three times with the above wash buffer and were developed using SureBlue tetramethylbenzidine (TMB) microwell peroxidase (KPL). Development was stopped by the addition of a stop solution (KPL), and the plates were then analysed at 450 nm with a Versamax ELISA microplate reader (Molecular Devices) using Softmax Pro 6.5.1 software. The ELISA endpoint titres were defined as the highest reciprocal serum dilution that yielded an OD450 nm absorbance of >0.2. Seroconversion occurred when the OD450 nm absorbance was greater than or equal to three times the value obtained at week 0 and the endpoint titre was greater than the assay LOD, which was 1:25.

[2] = molecular target: CA precursor (Gag polyprotein); settings: ref Yant et al, Nat.Med, 2019;[4]; read-out: Binding Affinity (KD), CA precursor (Gag polyprotein); cited from earlier work
CA pentamer = settings: ref Yant et al, Nat.Med, 2019;[4]; read-out: Binding Affinity (KD), CA pentamer; cited from earlier work
CA hexamer = settings: ref Yant et al, Nat.Med, 2019;[4]; read-out: Binding Affinity (KD), CA hexamer; cited from earlier work
HIV capsid = settings: ref Yant et al, Nat.Med, 2019;[4]; cited from earlier work

SMILES: CC(C)(C#Cc1ccc(-c2ccc(Cl)c3c(NS(=O)(=O)C4CC4)nn(CC(F)F)c23)c([C@H](Cc2cc(F)cc(F)c2)NC(=O)Cn2nc(C(F)F)c3c2C(F)(F)[C@@H]2C[C@H]32)n1)S(C)(=O)=O [GS-CA1]
- Plasma SHIV viral load (SHIV-SF162P3; GS-CA1 150mg/kg group, Week 24, individual animals, 150 mg/kg): 200 gag RNA copies per ml and 724 gag RNA copies per ml and 1367 gag RNA copies per ml
- Plasma SHIV viral load (SHIV-SF162P3; GS-CA1 300mg/kg group, Week 1, individual animals): 200 gag RNA copies per ml
- Plasma SHIV viral load (SHIV-SF162P3; GS-CA1 300mg/kg group, Week 2, individual animals): 200 gag RNA copies per ml
- Plasma SHIV viral load (SHIV-SF162P3; GS-CA1 300mg/kg group, Week 3, individual animals): 200 gag RNA copies per ml
- Plasma SHIV viral load (SHIV-SF162P3; GS-CA1 300mg/kg group, Week 4, individual animals): 200 gag RNA copies per ml
- Plasma SHIV viral load (SHIV-SF162P3; GS-CA1 300mg/kg group, Week 5, individual animals): 200 gag RNA copies per ml
- Plasma SHIV viral load (SHIV-SF162P3; GS-CA1 300mg/kg group, Week 6, individual animals): 200 gag RNA copies per ml
- Plasma SHIV viral load (SHIV-SF162P3; GS-CA1 300mg/kg group, Week 7, individual animals): 200 gag RNA copies per ml
- Plasma SHIV viral load (SHIV-SF162P3; GS-CA1 300mg/kg group, Week 8, individual animals): 200 gag RNA copies per ml
- Plasma SHIV viral load (SHIV-SF162P3; GS-CA1 300mg/kg group, Week 9, individual animals): 200 gag RNA copies per ml
- Plasma SHIV viral load (SHIV-SF162P3; GS-CA1 300mg/kg group, Week 10, individual animals): 200 gag RNA copies per ml
- Plasma SHIV viral load (SHIV-SF162P3; GS-CA1 300mg/kg group, Week 11, individual animals): 200 gag RNA copies per ml
- Plasma SHIV viral load (SHIV-SF162P3; GS-CA1 300mg/kg group, Week 12, individual animals): 200 gag RNA copies per ml
- Plasma SHIV viral load (SHIV-SF162P3; GS-CA1 300mg/kg group, Week 13, individual animals): 200 gag RNA copies per ml
- Plasma SHIV viral load (SHIV-SF162P3; GS-CA1 300mg/kg group, Week 14, individual animals): 200 gag RNA copies per ml
- Plasma SHIV viral load (SHIV-SF162P3; GS-CA1 300mg/kg group, Week 15, individual animals): 200 gag RNA copies per ml
- Plasma SHIV viral load (SHIV-SF162P3; GS-CA1 300mg/kg group, Week 16, individual animals): 200 gag RNA copies per ml
- Plasma SHIV viral load (SHIV-SF162P3; GS-CA1 300mg/kg group, Week 17, individual animals, 300 mg/kg): 9063 gag RNA copies per ml and 13193 gag RNA copies per ml and 200 gag RNA copies per ml and 13143 gag RNA copies per ml
- Plasma SHIV viral load (SHIV-SF162P3; GS-CA1 300mg/kg group, Week 18, individual animals, 300 mg/kg): 200 gag RNA copies per ml and 6116 gag RNA copies per ml and 1633235 gag RNA copies per ml
- Plasma SHIV viral load (SHIV-SF162P3; GS-CA1 300mg/kg group, Week 19, individual animals, 300 mg/kg): 200 gag RNA copies per ml and 123639 gag RNA copies per ml
- Plasma SHIV viral load (SHIV-SF162P3; GS-CA1 300mg/kg group, Week 20, individual animals, 300 mg/kg): 200 gag RNA copies per ml and 17958 gag RNA copies per ml
- Plasma SHIV viral load (SHIV-SF162P3; GS-CA1 300mg/kg group, Week 21, individual animals, 300 mg/kg): 200 gag RNA copies per ml
- Plasma SHIV viral load (SHIV-SF162P3; GS-CA1 300mg/kg group, Week 22, individual animals, 300 mg/kg): 200 gag RNA copies per ml
- Plasma SHIV viral load (SHIV-SF162P3; GS-CA1 300mg/kg group, Week 23, individual animals, 300 mg/kg): 200 gag RNA copies per ml
- Plasma SHIV viral load (SHIV-SF162P3; GS-CA1 300mg/kg group, Week 24, individual animals, 300 mg/kg): 200 gag RNA copies per ml
- peak viral loads vs vehicle-treated control animals (SHIV-SF162P3; infected GS-CA1-treated animals): significantly lower
- First viremia to seroconversion interval ([1]; 150 mg/kg): 1 weeks and 4 weeks and 5 weeks
- Seroconversion timepoint ([1]; 150 mg/kg): 17 study week and 20 study week and 18 study week and 16 study week and 19 study week and 21 study week
- First viremia to seroconversion interval ([1]; 300 mg/kg): 1 weeks and 3 weeks
- Seroconversion timepoint ([1]; 300 mg/kg): 18 study week and 20 study week
- median time to seroconversion from the onset of viraemia ([1]; all infected GS-CA1-treated animals, range 1 to 5 weeks): 4 weeks
- pKd [2]: 8.62
- pKd (CA pentamer): 9.57
- pKd (CA hexamer): 9.42
- Inhibits nuclear import (early-stage) (HIV capsid): Yes
- Inhibits proper capsid assembly (late-stage) (HIV capsid): Yes
- Inhibits virus production (late-stage) (HIV capsid): Yes
